According to patent US11401247B2, “Thiazole-5-carboxylic acid derivative and preparation method and use thereof” (XIANGBEI WELMAN PHARMACEUTICAL CO., LTD, priority 2018, dated 2022):
Read-outs that look alike come from different tables or passages of the source.

Legend:
hyperuricemia rats [1] = assay: pharmacodynamic screening in rat hyperuricemia model (exogenous uric acid administered, uric acid decomposition inhibited); type: in vivo, SD rats; details: for Serum uric acid level, Value after 3 h of drug administration: 3 h after first administration, model group 174.4 ± 39.9, blank 53.9 ± 12.8; for uric acid-lowering effect (in words): 3 h after drug administration, febuxostat and ethyl ester 14 mg/kg oral; for uric acid-lowering effect (in words) / p, uric acid level 3 h after drug administration compared with the blank group: F compounds 10 mg/kg; for p, uric acid level 3 h after drug administration compared with the blank group: febuxostat 14 mg/kg oral
hyperuricemia rats [2] = assay: dose-effect relationship study in rat hyperuricemia model; type: in vivo, SD rats; details: 3 h after first administration, model group 226.2 ± 35.2, blank 37.4 ± 5.1
Procedure: In order to further study the pharmacological activity of the compounds of the present disclosure, as well as the relationship between the activity and the dose, this example selected several compounds of the present disclosure to conduct a dose-effect relationship study in a rat model, in which exogenous uric acid was administered and uric acid decomposition was inhibited simultaneously. A positive drug was used as a control.
1. Experimental animals: Male SPF grade SD rats weighing 110-150 grams. […] The animals were free to drink and eat. All cages were sterilized at 121° C., feed was sterilized by irradiation, and water was sterilized purified water.
2. Experimental drugs: F-1C, F-2C, F-3A, 1.0 g for each compound; febuxostat (positive drug) 1.0 g; febuxostat ethyl ester (ethyl 2-[3-cyano-4-isobutoxyphenyl]-4-methylthiazole-5-carboxylate) 1.0 g;
3.1 Formulation of F-1C, F-2C, F-3A: Tor each of the compounds, take 100 mg, add 20 ml of 0.5% sodium carboxymethyl cellulose and grind, and then dilute to 100 ml.
3.2 Take 100 mg of febuxostat, add 20 ml of 0.5% sodium carboxymethyl cellulose and grind, and then dilute to 100 ml.
Except the blank group, the rest rats were modeled for 15 days and then their serum uric acid levels were detected. The rats were equally divided into several groups according to the detected uric acid levels thereof.
F-1C, F-2C and F-3A groups: each compound was taken orally at 3 doses, i.e., 2.5, 5 and 10 mg/kg; QD; and 10 animals for each dose group.
Febuxostat group: oral administration of 10 mg/kg, QD, and 10 animals.
Febuxostat ethyl ester group: oral administration of 10 mg/kg, QD, and 10 animals.
The blank group was not administrated with any drug. Each of the rest groups was orally administrated with oteracil potassium 1 g/kg and uric acid 0.3 g/kg and intraperitoneally injected with 0.1 g/kg uric acid (dissolved in 0.5% sodium carboxymethyl cellulose), once a day on schedule, for 15 days. 0.5 ml of blood samples was drawn from orbit before the experiment and […] after the modelling, respectively, to separated serum for determining serum uric acid levels.
After successful modeling, the rats were equally divided into several groups according to the serum uric acid values thereof, and then were intragastrically administrated with the test drugs. Three hours after the first administration, 0.5 ml of orbital venous blood was drawn from the orbit of the rats, centrifuged at 3000 RPM for 15 min, to obtain for determining the serum uric acid level of each rat.
Data were expressed by mean±standard deviation (′x±SD), and analyzed by Excel 7.0 and SPPS 13.0 for Windows software. Q-test was used for the comparison between groups, and the self-paired t-test was used for the comparison of a group before and after administration. It indicated significant difference when P<0.05.

ICR mice = details: for Autopsy results of survival animals / animal deaths within 24 hours from the administration / Abnormal reactions within 12 hours from ig administration: formal test; for Autopsy results of survival animals: 3000 mg/kg ig; for animal deaths within 24 hours from the administration: all dose groups; for animal deaths within 24 hours from the administration / Abnormal reactions within 12 hours from ig administration: febuxostat high-dose group; for Abnormal reactions within 12 hours from ig administration: F compounds 3000 mg/kg; for Number of dead animals: 10 mice; for death, preliminary experiments / toxic reactions, preliminary experiments: intragastric 1600 mg/kg
in vivo = details: mouse, po

Compound | Serum uric acid level, Value after 3 h of drug administration (hyperuricemia rats [1]; 14 mg/kg oral) | uric acid-lowering effect (in words) (hyperuricemia rats [1]) | Serum uric acid content, Value after 3 h of drug administration (hyperuricemia rats [2]; 10 mg/kg oral) | Serum uric acid level, Value after 3 h of drug administration (hyperuricemia rats [1]; 10 mg/kg oral) | p, uric acid level 3 h after drug administration compared with the blank group (hyperuricemia rats [1]) | Serum uric acid content, Value after 3 h of drug administration (hyperuricemia rats [2]; 2.5 mg/kg oral) | Serum uric acid content, Value after 3 h of drug administration (hyperuricemia rats [2]; 5 mg/kg oral) | Autopsy results of survival animals (ICR mice) | animal deaths within 24 hours from the administration (ICR mice) | Abnormal reactions within 12 hours from ig administration (ICR mice) | Number of dead animals (ICR mice; ig 3000 mg/kg) | death, preliminary experiments (ICR mice; mice) | toxic reactions, preliminary experiments (ICR mice; mice) | LD50 at 14 days (in vivo) | LD50 at 14 days (in vivo; 3000 mg/kg) | other results
CCOC(=O)c1sc(-c2ccc(OCC(C)C)c(C#N)c2)nc1C [Febuxostat ethyl ester, ethyl 2-[3-cyano-4-isobutoxyphenyl]-4-methylthiazole-5-carboxylate, reference compound] | 113.9 ± 24.9^a3b3c3 μmol/L | inferior to febuxostat | 177.3 ± 38.6^a3 μmol/L |  |  |  |  |  |  |  |  |  |  |  |  | 
Cc1nc(-c2ccc(OCC(C)C)c(C#N)c2)sc1C(=O)OCCN(C)CCO [Compound F-3A] |  | very obvious uric acid-lowering effects | 82.3 ± 16.8^a3, b3, c3 μmol/L | 64.1 ± 16.1^a3b3 μmol/L | no significant difference | 173.4 ± 32.7^a3, b3 μmol/L | 137.6 ± 24.3^a3, b3 μmol/L | No obvious abnormalities were observed in the organs | no animal deaths were observed | no abnormalities were observed | 0 | no animal died | no obvious toxicity symptom was observed | 3000 mg/kg | ≥ 3000 mg/kg | 
Cc1nc(-c2ccc(OCC(C)C)c(C#N)c2)sc1C(=O)NC(CC(=O)O)C(=O)O (stereo not shown) [Compound F-2C] |  |  | 107.3 ± 21.2^a3, b3, c3 μmol/L | 68.6 ± 19.2^a3b3c1 μmol/L |  | 172.7 ± 33.9^a3 μmol/L | 131.9 ± 29.7^a3, b3 μmol/L | No obvious abnormalities were observed in the organs | no animal deaths were observed | no abnormalities were observed | 0 | no animal died | no obvious toxicity symptom was observed |  |  | LD50/Maximum dose (ICR mice; ig once, mice, 14 days observation, Bliss method, febuxostat: LD50, F compounds: maximum administration dose, no deaths): 3000 mg/kg
Cc1nc(-c2ccc(OCC(C)C)c(C#N)c2)sc1C(=O)OC(C)Cl (stereo not shown) [Compound F-1C] |  | very obvious uric acid-lowering effects | 100.1 ± 25.8^a3, b3, c3 μmol/L | 64.2 ± 28.1^a3b3 μmol/L | no significant difference | 189.8 ± 25.3^a3 μmol/L | 146.9 ± 19.5^a3, b3 μmol/L | No obvious abnormalities were observed in the organs | no animal deaths were observed | no abnormalities were observed | 0 | no animal died | no obvious toxicity symptom was observed | 3000 mg/kg | ≥ 3000 mg/kg | 
Cc1nc(-c2ccc(OCC(C)C)c(C#N)c2)sc1C(=O)O [Febuxostat, 2-[3-cyano-4-isobutoxyphenyl]-4-methylthiazole-5-carboxylic acid, reference compound] | 86.6 ± 17.5^a3b3c3 μmol/L | good effect on lowering uric acid | 140.8 ± 33.5^a3, b3 μmol/L |  | < 0.001 |  |  |  | several animals of the high-dose group of febuxotan died |  |  | caused death in several mice |  | 701 ± 47.6 mg/kg |  | Number of dead animals (ICR mice; ig 327.7 mg/kg): 0; Number of dead animals (ICR mice; ig 409.6 mg/kg): 0; Number of dead animals (ICR mice; ig 512 mg/kg): 1; Number of dead animals (ICR mice; ig 640 mg/kg): 3; Number of dead animals (ICR mice; ig 800 mg/kg): 6; Cause of death (ICR mice; mice after ig administration): toxicity to the urinary system
Cc1nc(-c2ccc(OCC(C)C)c(C#N)c2)sc1C(=O)OCCO [Compound F-1A] |  |  |  | 71.0 ± 24.4^a3b3c1 μmol/L |  |  |  | No obvious abnormalities were observed in the organs | no animal deaths were observed | no abnormalities were observed | 0 | no animal died | no obvious toxicity symptom was observed | 3000 mg/kg | ≥ 3000 mg/kg | 
